The text below walks through data of PMC11033537 (Iranian Journal of Parasitology, 2024).

As a reminder, the inhibition is the share of the control response that was lost under treatment. Usually CC50 stands for the concentration that lowers cell viability or growth by half. Read a high CC50 as better tolerance by the cells.

In brackets after ≈: the same amount, converted by molar mass. Where two headings read alike, the source gives them in different places.

One series has as its system Plasmodium falciparum. The settings on record: cited from earlier work; for antimalarial activity: among 20 nature identical essential oil constituents.
The subject of series [1] is Trichomonas vaginalis cells, TVH1 strain. It is filed as cell-based. As to conditions: for inhibition at 0.2 µg/mL / inhibition at 0.4 µg/mL / inhibition at 0.8 µg/mL / inhibition at 1.6 µg/mL / inhibition at 3.1 µg/mL / inhibition at 6.2 µg/mL / inhibition at 3.9 µg/mL / inhibition at 7.8 µg/mL / inhibition at 15.6 µg/mL / inhibition at 31.2 µg/mL / inhibition at 62.5 µg/mL / inhibition at 250 µg/mL: read-out: Growth inhibition percent (Mean ± SD).

Series [2] has the same test system. The series can be described thus: Annexin V/PI apoptosis assay by flow cytometry. The class given is cell-based. The settings on record: sub-MLC concentration, 24 hours. Background: A flow cytometer gives signals particle by particle.
The subject of series [3] is intramacrophagic amastigotes of L. amazonensis. The settings on record: cited from earlier work.
The test system of series [4] is promastigotes of L. amazonensis. As to conditions: cited from earlier work.
A short description of another series: MTT cytotoxicity assay. It is filed as cell-based. As to conditions: African green monkey, Vero cells. A general note: Formazan colour is commonly taken as a measure of viable cells.
For another series, the system named is Vero cells. The series can be described thus: MTT cytotoxicity assay. The class given is cell-based. The settings on record: for CC50: Vero cells.

On to `C=CC(C)(O)CCC=C(C)CCC=C(C)C` (mixture of isomers) [nerolidol], for which the antimalarial activity entry in the series with Plasmodium falciparum is “most potent antimalarial activity”.

Turning to `Cc1ncc([N+](=O)[O-])n1CCO` [Metronidazole, reference compound], the “MLC (minimum lethal concentration)” value in series [1] (12 hours incubation) is 25 µg/mL (≈ 146 µM). For the same compound, the “MLC (minimum lethal concentration)” value in series [1] (48 hours incubation) was 6.25 µg/mL (≈ 36.5 µM). In series [1] (TVH1 isolate), the “drug susceptibility of the isolate” value is “sensitive”. Also, in series [1] (Trichomonas vaginalis, 12 h), the inhibition at 0.2 µg/mL was found to be 4.9 ± 3.9%, the inhibition at 0.4 µg/mL was determined as 19.3 ± 5.5%, the inhibition at 0.8 µg/mL was found to be 38.9 ± 7.1% and the inhibition at 1.6 µg/mL was determined as 59.2 ± 8.6%. Besides, in series [1] (Trichomonas vaginalis, 12 h), the inhibition at 3.1 µg/mL came out at 64.6 ± 5.3% and the inhibition at 6.2 µg/mL came to 77.5 ± 6.3%. Moreover, in series [1] (Trichomonas vaginalis, 24 h), the inhibition at 0.2 µg/mL was 10.3 ± 6.7%, the inhibition at 0.4 µg/mL is 32.8 ± 2.6%, the inhibition at 0.8 µg/mL was found to be 55 ± 4.6% and the inhibition at 1.6 µg/mL is 72.6 ± 2.3%. For the same compound, in series [1] (Trichomonas vaginalis, 24 h), the inhibition at 3.1 µg/mL was 84.6 ± 2.7% and the inhibition at 6.2 µg/mL is 93.4 ± 0.6%. In addition, in series [1] (Trichomonas vaginalis, 48 h), the inhibition at 0.2 µg/mL was determined as 25.9 ± 4.8%, the inhibition at 0.4 µg/mL came out at 44 ± 2.2%, the inhibition at 0.8 µg/mL stood at 73.4 ± 2.5% and the inhibition at 1.6 µg/mL is 91.5 ± 2.3%. Also, in series [1] (Trichomonas vaginalis, 48 h), the inhibition at 3.1 µg/mL worked out at 98.2 ± 0.4% and the inhibition at 6.2 µg/mL worked out at 100%.

As for `C=CC(C)(CCC=C(C)C)OC(C)=O` (stereo not shown) [linalyl acetate], the antimalarial activity entry in the series with Plasmodium falciparum is “most potent antimalarial activity”.

For `CC(C)=C1CC[C@@H](C)CC1=O` [pulegone], the antimalarial activity result with Plasmodium falciparum is on record as “most potent antimalarial activity”.

The compound `CC1=CCC2CC1C2(C)C` (stereo not drawn) [α-Pinene] yielded a necrotic effect in series [2] of 50.5%. In addition, in series [3], the “IC50 (cytotoxic effect)” value was 15.6 µg/mL (≈ 115 µM). In addition, the IC50 in series [4] is 19.7 µg/mL (≈ 145 µM); with Plasmodium falciparum (read-out: IC 50 (growth inhibition)) it was 1200 ± 200 nM; in series [1] (Trichomonas vaginalis, 12 h), 38.9 µg/mL (≈ 286 µM); in series [1] (Trichomonas vaginalis, 24 h), 30.2 µg/mL (≈ 222 µM); in series [1] (Trichomonas vaginalis, 48 h) it was 22.9 µg/mL (≈ 168 µM); in series [1] (Trichomonas vaginalis, read-out: IC50 (range over incubation times)), 22.9 to 38.9 µg/mL (≈ 168 to 286 µM). In addition, the IC50 in series [1] (Trichomonas vaginalis, read-out: mean IC50) came to 30.7 µg/mL (≈ 225 µM). The compound further displayed a 50% cytotoxic concentration (CC50) at 12 h in the series “MTT cytotoxicity assay” of 226 µg/mL (≈ 1660 µM). Further, the CC50 at 24 h in the series “MTT cytotoxicity assay” was 209 µg/mL (≈ 1530 µM). For the same compound, in “MTT cytotoxicity assay”, the midpoint of cytotoxicity, the CC50 at 48 h, lay at 116 µg/mL (≈ 851 µM). Moreover, the “SI (selectivity index = CC50/IC50)” value was 5.8 with Vero cells (Vero CC50 / Trichomonas IC50, 12 hours); 6.9 in the series on Vero cells (Vero CC50 / Trichomonas IC50, 24 hours); 5 in the series with Vero cells (Vero CC50 / Trichomonas IC50, 48 hours). Further, the “average selectivity index (SI)” value in the series with Vero cells (average of 12, 24 and 48 hours) is listed as 5.9. Further, the antimalarial activity result with Plasmodium falciparum is on record as “most potent antimalarial activity”. Besides, the “MLC (minimum lethal concentration)” value in series [1] (12 hours incubation) is 250 µg/mL (≈ 1840 µM); in series [1] (24 hours incubation), 125 µg/mL (≈ 918 µM); in series [1] (48 hours incubation), 125 µg/mL (≈ 918 µM). Further, the inhibition at 3.9 µg/mL was 21.4 ± 7.6% in series [1] (Trichomonas vaginalis, 12 h); 15.5 ± 5.8% in series [1] (Trichomonas vaginalis, 24 h); 10.2 ± 6.5% in series [1] (Trichomonas vaginalis, 48 h). Further, the inhibition at 7.8 µg/mL in series [1] (Trichomonas vaginalis, 12 h) came to 26.3 ± 5.5%; in series [1] (Trichomonas vaginalis, 24 h), 29.2 ± 6.3%; in series [1] (Trichomonas vaginalis, 48 h), 45.3 ± 4.7%. Besides, the inhibition at 15.6 µg/mL is 40.2 ± 6.3% in series [1] (Trichomonas vaginalis, 12 h); 69.3 ± 7.7% in series [1] (Trichomonas vaginalis, 24 h); 74.3 ± 5.2% in series [1] (Trichomonas vaginalis, 48 h). For the same compound, the inhibition at 31.2 µg/mL in series [1] (Trichomonas vaginalis, 12 h) was 48.5 ± 4.1%; in series [1] (Trichomonas vaginalis, 24 h) it was 76.5 ± 8.8%; in series [1] (Trichomonas vaginalis, 48 h), 84.1 ± 4.3%. The inhibition at 62.5 µg/mL worked out at 54.5 ± 3.3% in series [1] (Trichomonas vaginalis, 12 h); 80.9 ± 6.4% in series [1] (Trichomonas vaginalis, 24 h); 96.7 ± 6.2% in series [1] (Trichomonas vaginalis, 48 h). The inhibition at 250 µg/mL was determined as 100% in series [1] (Trichomonas vaginalis, 12 h); 100% in series [1] (Trichomonas vaginalis, 24 h); 100% in series [1] (Trichomonas vaginalis, 48 h).

Tannic acid registered a necrotic effect in series [2] of 31.9%. The half-maximal cytotoxic concentration (CC50) in the series with Vero cells (12 hours) came to 747 µg/mL; in the series with Vero cells (24 hours) it was 677 µg/mL; in the series on Vero cells (48 hours) it was 473 µg/mL. In addition, the “Growth inhibition percent (Mean ± SD)” value is on record as 1.4 ± 5.2% in series [1] (62.5 μg/ml, 12 hours); 4.3 ± 4.9% in series [1] (62.5 μg/ml, 24 hours); 21.1 ± 6.2% in series [1] (62.5 μg/ml, 48 hours); 13.4 ± 8.3% in series [1] (250 μg/ml, 12 hours); 26.4 ± 3.9% in series [1] (250 μg/ml, 24 hours); 71.5 ± 6.8% in series [1] (250 μg/ml, 48 hours). The “Growth inhibition percent (Mean ± SD)” value in series [1] (500 μg/ml, 12 hours) was 16.9 ± 5.2%; in series [1] (500 μg/ml, 24 hours), 33.8 ± 4.8%; in series [1] (500 μg/ml, 48 hours), 74.9 ± 5.1%; in series [1] (1000 μg/ml, 12 hours) it was 19.8 ± 6.7%; in series [1] (1000 μg/ml, 24 hours), 59.9 ± 6.2%; in series [1] (1000 μg/ml, 48 hours), 87.6 ± 4.4%. In addition, the “Growth inhibition percent (Mean ± SD)” value in series [1] (2000 μg/ml, 12 hours) worked out at 78.8 ± 5.1%; in series [1] (2000 μg/ml, 24 hours), 80.4 ± 3.8%; in series [1] (2000 μg/ml, 48 hours), 100 ± 0.0%; in series [1] (4000 μg/ml, 12 hours), 100 ± 0.0%; in series [1] (4000 μg/ml, 24 hours), 100 ± 0.0%; in series [1] (4000 μg/ml, 48 hours), 100 ± 0.0%. Further, the IC50 in series [1] (12 hours incubation) was found to be 1398 µg/mL; in series [1] (24 hours incubation), 689 µg/mL; in series [1] (48 hours incubation) it was 140 µg/mL. Also, the “MLC (minimum lethal concentration)” value in series [1] (12 hours incubation) came out at 4000 µg/mL; in series [1] (24 hours incubation), 4000 µg/mL; in series [1] (48 hours incubation) it was 2000 µg/mL. For the same compound, the “mean IC50” value in series [1] (average of 12, 24 and 48 hours) amounted to 742.3 µg/mL.
